The target in the assay is human calcitonin receptor (CTR) and RAMP3 (AMY3) (Homo sapiens, UniProt O60896+P30988). The assay is described as follows: Amylin Receptor cAMP Assay I. Type of assay: cell-based. The following applies: COS-7/AMY3 cells, cAMP Hi-range Kit, read-out: Amylin Receptor cAMP Stimulation Activity: EC50. The source says:
Amylin Receptor cAMP Assay I
AMYRs are heterodimers of the class B calcitonin (CT) G-protein-coupled receptor (CTR) and receptor activity-modifying proteins (RAMPs). All three RAMPs can interact with the CTR and form AMY1, AMY2, AMY3 with RAMP1, RAMP2 and RAMP3, respectively. Like other class B1 GPCRs, the CT receptor family is canonically coupled to Gs-mediated cAMP production, and measurement of cAMP accumulation has been the primary assay used to determine peptide selectivity and potency.
To optimize functional activity directed toward Gas coupling, COS-7 cells were stably transfected with human calcitonin receptor (CTR) and RAMP3, simultaneously. 100×concentration of compound working solutions were prepared (Agilent Technologies Bravo) with 4-fold serial dilution in 384-well Echo LDV plate (Labcyte, Cat #LP-0200). 100 nL/well 100× concentration of compound working solutions were moved to 384-well white low volume plate (Greiner, Cat #784075) using Labcyte ECHO550. 1×10^5 cells/mL COS-7/CTR or COS-7/AMY3 (HD Biosciences) cell suspensions prepared with assay buffer [DPBS containing 0.5 mM IBMX (Sigma, Cat #15879) and 0.1% BSA (GENVIEW, Cat #FAO16-100 g)], 10 μL cell suspensions were added to each well of previous generated assay plate which already contains 100 nL compound at 100× concentration using ThermoFisher Multidrop Combi (1000 cells/well). Seal the plate and incubate at 37° C. with 5% CO2 for 30 min.
After incubation, the cAMP assay signal was generated using cAMP Hi-range Kit (Cisbio). 5 μL cAMP-d2 working solution was added to each well, followed by 5 μL Anti-cAMP antibody-cryptate working solution which was added to each well using ThermoFisher Multidrop Combi. The samples were then incubated at room temperature for 1 hour protected from light. the fluorescence was read at 665 and 615 nm with Reader PerkinElmer EnVision.
Chain of human calcitonin receptor (CTR) and RAMP3 (AMY3) (O60896 24-148): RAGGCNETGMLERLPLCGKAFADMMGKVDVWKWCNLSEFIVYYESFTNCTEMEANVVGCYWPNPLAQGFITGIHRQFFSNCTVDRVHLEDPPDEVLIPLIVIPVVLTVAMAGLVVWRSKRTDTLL
Chain of human calcitonin receptor (CTR) and RAMP3 (AMY3) (P30988 25-474): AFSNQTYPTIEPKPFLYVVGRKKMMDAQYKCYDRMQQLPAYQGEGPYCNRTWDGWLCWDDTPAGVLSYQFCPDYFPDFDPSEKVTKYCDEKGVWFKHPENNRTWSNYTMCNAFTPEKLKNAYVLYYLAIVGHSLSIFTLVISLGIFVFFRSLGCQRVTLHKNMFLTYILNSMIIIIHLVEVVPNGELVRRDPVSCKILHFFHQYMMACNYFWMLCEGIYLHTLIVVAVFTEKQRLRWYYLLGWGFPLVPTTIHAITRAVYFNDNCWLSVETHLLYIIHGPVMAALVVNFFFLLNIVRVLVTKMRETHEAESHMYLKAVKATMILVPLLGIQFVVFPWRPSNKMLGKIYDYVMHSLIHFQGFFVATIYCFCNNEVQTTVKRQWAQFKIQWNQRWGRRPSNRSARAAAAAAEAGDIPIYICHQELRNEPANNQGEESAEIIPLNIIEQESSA
For the compound `Cc1nnc(-c2c(COc3ccc(F)cc3)nc3c(c2-c2ccc(C(=O)N[C@@H]4CCc5ncccc54)s2)C(=O)N2CCC[C@@H]32)o1` [Compound 32, N—[(R)-4-aza-1-indanyl]-5-{(2S)-11-[(p-fluorophenoxy)methyl]-10-(5-methyl-1,3,4-oxadiazol-2-yl)-7-oxo-6,12-diazatricyclo[6.4.0.0^2,6]dodeca-1(8),9,11-trien-9-yl}-2-thenamide], the concentration for a half-maximal effect (EC50) was 728 nM.
Take `Cc1nnc(-c2c(COC3CCOCC3)nc3c(c2-c2ccc(C(=O)NCc4ccc(F)c(F)c4)s2)C(=O)N2CCC[C@@H]32)o1` [Compound 26]: the EC50 came to 1600 nM.
As to `Cc1nnc(-c2c(CC3(c4ccc(F)cc4)CC3)nc3c(c2-c2ccc(C(=O)NCc4ccc(F)c(F)c4)s2)C(=O)N2CCC[C@@H]32)o1` [Compound 49, (S)—N-(3,4-difluorobenzyl)-5-(2-((1-(4-fluorophenyl)cyclopropyl)methyl)-3-(5-methyl-1,3,4-oxadiazol-2-yl)-5-oxo-7,8,9,9a-tetrahydro-5H-pyrido[2,3-a]pyrrolizin-4-yl)thiophene-2-carboxamide], the EC50 turned out to be 382 nM.
As to `COc1cccc2c1CC[C@H]2NC(=O)c1ccc(-c2c3c(nc(CCc4ccc(F)cc4)c2-c2nnc(C)o2)[C@@H]2CCCN2C3=O)s1` [Compound 13, N—[(R)-4-methoxy-1-indanyl]-5-((2S)-11-[2-(p-fluorophenyl)ethyl]-10-(5-methyl-1,3,4-oxadiazol-2-yl)-7-oxo-6,12-diazatricyclo[6.4.0.0^2,6]dodeca-1(12),8,10-trien-9-yl}-2-thenamide], the EC50 came out at 29.7 nM.
As to `Cc1nnc(-c2c(CCc3ccc(F)cc3)nc3c(c2-c2ccc(C(=O)N[C@@H]4CCc5ccccc54)s2)C(=O)NC[C@H]3C(C)C)o1` [Compound 16, N—((R)-2,3-dihydro-1H-inden-1-yl)-5-((R)-2-(4-fluorophenethyl)-8-isopropyl-3-(5-methyl-1,3,4-oxadiazol-2-yl)-5-oxo-5,6,7,8-tetrahydro-1,6-naphthyridin-4-yl)thiophene-2-carboxamide], the EC50 was 2370 nM.
For `Cc1ncoc1-c1c(CCc2ccc(F)cc2)nc2c(c1-c1ccc(C(=O)NCc3ccc(F)c(F)c3)s1)S(=O)(=O)N1CCC[C@@H]21` [Compound 33, (S)—N-(3,4-difluorobenzyl)-5-(2-(4-fluorophenethyl)-3-(4-methyloxazol-5-yl)-5,5-dioxido-7,8,9,9a-tetrahydropyrrolo[1′,2′:2,3]isothiazolo[4,5-b]pyridin-4-yl)thiophene-2-carboxamide], the EC50 was 52.5 nM.
In the case of `Cc1nnc(-c2c(CCC3CCOC(C)(C)C3)nc3c(c2-c2ccc(C(=O)NCc4ccc(F)c(F)c4)s2)C(=O)N2CCC[C@@H]32)o1` (stereo partly drawn) [Compound 66, N-(3,4-difluorobenzyl)-5-((9aS)-2-(2-(2,2-dimethyltetrahydro-2H-pyran-4-yl)ethyl)-3-(5-methyl-1,3,4-oxadiazol-2-yl)-5-oxo-7,8,9,9a-tetrahydro-5H-pyrido[2,3-a]pyrrolizin-4-yl)thiophene-2-carboxamide], the EC50 came out at 975 nM.
Regarding `Cc1cnc(-c2c(CCc3ccc(F)cc3)nc3c(c2-c2ccc(C(=O)NCc4ccc(F)c(F)c4)s2)S(=O)(=O)N2CCC[C@@H]32)o1` [Compound 24], the EC50 came to 80 nM.
Consider `Cc1nnc(-c2c(CC(O)c3ccc(F)cc3)nc3c(c2-c2ccc(C(=O)N[C@@H]4CCc5ccccc54)s2)C(=O)N2CCC[C@@H]32)o1` (stereo partly drawn) [Compound 51, N-[(1R)-2,3-dihydro-1H-indenyl]-5-[(9aS)-2-[2-(4-fluorophenyl)-2-hydroxyethyl]-3-(5-methyl-1,3,4-oxadiazol-2-yl)-5-oxo-7,8,9,9a-tetrahydro-5H-pyrido[2,3-a]pyrrolizin-4-yl]thiophene-2-carboxamide], for which the EC50 turned out to be 551 nM.
Then `Cc1nnc(-c2c(CCC3CCC(F)(F)CC3)nc3c(c2-c2ccc(C(=O)NCc4ccc(F)c(F)c4)s2)C(=O)N2CCC[C@@H]32)o1` [Compound 27], with 174 nM; and `Cc1cnc(-c2c(CCC3CCOCC3)nc3c(c2-c2cc4ccnc(NCc5cncc(F)c5)c4s2)C(=O)N2CCC[C@@H]32)o1` [Compound 75], with 360 nM.
On to `CC(C)c1nnc(-c2c(CCc3ccc(F)cc3)nc3c(c2-c2ccc(C(=O)NCc4ccc(F)c(F)c4)s2)C(=O)N2CCC[C@@H]32)o1` [Compound 21], for which the EC50 amounted to 37 nM.
Then `Cc1nnc(-c2c(CCc3ccc(F)cc3)nc3c(c2-c2ccc(C(=O)NCc4ccc(F)c(F)c4)s2)C(=O)N2CC[C@H](O)[C@@H]32)o1` [Compound 50, N-(3,4-difluorobenzyl)-5-((9S,9aR)-2-(4-fluorophenethyl)-9-hydroxy-3-(5-methyl-1,3,4-oxadiazol-2-yl)-5-oxo-7,8,9,9a-tetrahydro-5H-pyrido[2,3-a]pyrrolizin-4-yl)thiophene-2-carboxamide], with 129 nM; and `Cc1nnc(-c2c(CCc3ccccc3)nc3c(c2-c2ccc(C(=O)NCc4ccc(F)c(F)c4)s2)C(=O)N2CCC[C@@H]32)o1` [Compound 5, (S)—N-(3,4-difluorobenzyl)-5-(3-(5-methyl-1,3,4-oxadiazol-2-yl)-5-oxo-2-phenethyl-7,8,9,9a-tetrahydro-5H-pyrido[2,3-a]pyrrolizin-4-yl)thiophene-2-carboxamide], with 67.5 nM; and `CCc1nc2c(c(-c3ccc(C(=O)N[C@@H]4CCc5cc(F)ccc54)s3)c1-c1nnc(C)o1)C(=O)N1CCC[C@@H]21` [Compound 82, N—[(R)-5-fluoro-1-indanyl]-5-((2S)-11-ethyl-10-(5-methyl-1,3,4-oxadiazol-2-yl)-7-oxo-6,12-diazatricyclo[6.4.0.0^2,6]dodeca-1(8),9,11-trien-9-yl}-2-thenamide], with 1810 nM.
With `Cc1nnc(-c2c(CCc3ccc(F)cc3)nc3c(c2-c2ccc(C(=O)NCc4cncc(F)c4)s2)C(=O)N2CCC[C@@H]32)o1` [Compound 12, (S)-5-(2-(4-fluorophenethyl)-3-(5-methyl-1,3,4-oxadiazol-2-yl)-5-oxo-7,8,9,9a-tetrahydro-5H-pyrido[2,3-a]pyrrolizin-4-yl)-N-((5-fluoropyridin-3-yl)methyl)thiophene-2-carboxamide] the figure was 113 nM; with `Cc1ncoc1-c1c(CCc2ccc(F)cc2)nc2c(c1-c1ccc(C(=O)NCc3ccc(F)c(F)c3)s1)C(=O)N1CCC[C@@H]21` [Compound 31, (S)—N-(3,4-difluorobenzyl)-5-(2-(4-fluorophenethyl)-3-(4-methyloxazol-5-yl)-5-oxo-7,8,9,9a-tetrahydro-5H-pyrido[2,3-a]pyrrolizin-4-yl)thiophene-2-carboxamide], 41.2 nM; with `Cc1nnc(-c2c(CCc3ccc(F)cc3)nc3c(c2-c2cc4ccnc(NCc5ccc(F)c(F)c5)c4s2)C(=O)N2CCC[C@@H]32)o1` [Compound 40, (S)-4-(7-((3,4-difluorobenzyl)amino)thieno[2,3-c]pyridin-2-yl)-2-(4-fluorophenethyl)-3-(5-methyl-1,3,4-oxadiazol-2-yl)-7,8,9,9a-tetrahydro-5H-pyrido[2,3-a]pyrrolizin-5-one], 20.2 nM.
Take `Cc1ccc(CCc2nc3c(c(-c4ccc(C(=O)NCc5ccc(F)c(F)c5)s4)c2-c2nnc(C)o2)C(=O)N2CCC[C@@H]32)nc1` [Compound 6, (S)—N-(3,4-difluorobenzyl)-5-(3-(5-methyl-1,3,4-oxadiazol-2-yl)-2-(2-(5-methylpyridin-2-yl)ethyl)-5-oxo-7,8,9,9a-tetrahydro-5H-pyrido[2,3-a]pyrrolizin-4-yl)thiophene-2-carboxamide]: the EC50 turned out to be 674 nM.
Then `Cc1nnc(-c2c(CCc3ccc(F)cc3)nc3c(c2-c2ccc(C(=O)N[C@@H]4COc5ccccc54)s2)C(=O)N2CCC[C@@H]32)o1` [Compound 10, N—((S)-2,3-dihydrobenzofuran-3-yl)-5-((S)-2-(4-fluorophenethyl)-3-(5-methyl-1,3,4-oxadiazol-2-yl)-5-oxo-7,8,9,9a-tetrahydro-5H-pyrido[2,3-a]pyrrolizin-4-yl)thiophene-2-carboxamide], with 66.7 nM; and `CO[C@H]1C[C@@H](NC(=O)c2ccc(-c3c4c(nc(CCc5ccc(F)cc5)c3-c3nnc(C)o3)[C@@H]3CCCN3C4=O)s2)c2ccccc21` (stereo in doubt) [Compound 30, N-[(1R,3S)-3-methoxy-1-indanyl]-5-{(2S,6R)-11-[2-(p-fluorophenyl)ethyl]-10-(5-methyl-1,3,4-oxadiazol-2-yl)-7-oxo-6,12-diazatricyclo[6.4.0^2,^6]dodeca-1(8),9,11-trien-9-yl}-2-thenamide], with 63.5 nM.
As for `CO[C@H]1C[C@@H](Nc2nccc3cc(-c4c5c(nc(CCC6CCOCC6)c4-c4nnc(C)o4)[C@@H]4CCCN4C5=O)sc23)c2ccccc21` [Compound 74], the EC50 stood at 860 nM.
For `Cc1nnc(-c2c(CCC3CCOCC3)nc3c(c2-c2cc4ccnc(N[C@@H]5CCc6ccc(F)cc65)c4s2)C(=O)N2CCC[C@@H]32)o1` [Compound 72], the EC50 amounted to 81.4 nM.

The EC50 is the concentration at which the effect is half-maximal.

The record behind these values is US20250051355A1, “COMPOUNDS, COMPOSITIONS, AND METHODS” (ACONCAGUA BIO, INC., priority 2023, published 2025).
